Measurements taken from PubChem BioAssay AID652047 (Broad Institute, 2013).
Active and inactive are the calls of the source.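 Rule for the calls: active = fitted curve reaches activity change of -35% signal drop at a concentration below twice the top valid tested dose; inactive = the rest, including activity in the opposite direction.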

Assay: antimalarial activity against intraerythrocytic 3D7 parasites – 3D7 strain, red blood cells, SYBR Green, cherry-picked, dose response (AID 652047);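 note: 0% = untreated neutral control wells and -100% = mefloquine positive control wells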
Details: P. falciparum 3D7 in RBCs, SYBR Green DNA fluorescence

Compound	activity change, negative = inhibition (at 50 µM (top of the series))	activity change, negative = inhibition (at 16 µM (top of the series))
CCn1c(CNc2ccc(Cl)cc2)nnc1SCc1ccccc1	-1.95% (inactive)	
O=C(N/N=C/c1cc(Cl)cc([N+](=O)[O-])c1O)c1ccccc1NS(=O)(=O)c1cccs1	3.85% (inactive)	
CC1Oc2ccccc2C=C1/C=N/Nc1ccc(C(=O)O)cc1 (stereo not given)		17% (inactive)
COC(OC)c1ccc(C#N)c(SCc2ccccc2)n1	-2.94% (inactive)	
CCCCC(CC)c1nnc(NC(=O)c2cccs2)s1 (stereo not given)	-12.7% (inactive)	
Oc1c(Br)cc(-c2ccccc2)cc1Br	-1.67% (inactive)	
CCCn1c(=O)c(C(=O)NCc2ccc(OC)c(OC)c2)c(O)c2ccccc21	-23.6% (inactive)	
CC(C)CSc1n[nH]c(=S)s1	-1.47% (inactive)	
COc1ccc(N(C(=O)c2ccncc2)S(=O)(=O)c2ccccc2)cc1	-18.5% (inactive)	
CCC(Oc1ccc(Br)cc1Cl)C(=O)Nc1nnc(C2CC2)s1 (stereo not given)	-18.5% (inactive)	
CCCCn1c(=O)c(C(=O)NCc2ccncc2)c(O)c2ccccc21	2.98% (inactive)	
O=C(O)CSc1nc(-c2ccc(Cl)cc2)nc2c1oc1ccccc12	-31.1% (inactive)	
O/N=C/c1cc(Br)ccc1OCc1ccccc1F		13.1% (inactive)
CC(C)NC(=O)NC(=O)COC(=O)c1ccc([N+](=O)[O-])cc1Cl	16.4% (inactive)	
O=C(c1ccccc1)c1ccc(Cn2cc(-c3ccccc3)nn2)cc1	-9.93% (inactive)	
CCCn1c2ccccc2c2cc(C(=O)O)ccc21	17.1% (inactive)	
COc1ccc(N(C)S(=O)(=O)c2ccc(Cl)c(C(=O)NNC(=O)c3ccccc3O)c2)cc1	-2.22% (inactive)	
COC(=O)C1=NN(C(=O)c2cccc(Br)c2)C(O)(c2ccc(Cl)cc2)C1 (stereo not given)	-78.6% (inactive)	
COc1cccc(C(C)=C2SC(=S)NC2=O)c1	-18.5% (inactive)	
O=C(c1ccccc1)N1C(=O)C(c2ccccc2)Oc2ccccc21 (stereo not given)	-36.8% (inactive)	

Compound	activity change, negative = inhibition (at 50 µM (top of the series))	activity change, negative = inhibition (at 16 µM (top of the series))
CCCC1CCC(c2ccc(/C(N)=N/O)cc2)CC1 (stereo not given)	-10.1% (inactive)	
Nc1nc2sc3c(c2c(=O)s1)CCCC3	-14.6% (inactive)	
Nc1nc(-c2ccc(Oc3ccccc3)cc2)cs1	-0.359% (inactive)	
O=C(c1ccc(Cl)cc1)N1CCN(c2ccc(F)cc2)CC1	-26.4% (inactive)	
CCn1c(CNc2ccc(Cl)cc2)nnc1SCc1ccc(Cl)cc1	-49.2% (inactive)	
CC1CCN(c2ccc3c(c2)S(=O)(=O)c2ccccc2C3=O)CC1	-3.18% (inactive)	
COc1cccc(CC(=O)Nc2ccc3nc(C)sc3c2)c1	-2.47% (inactive)	
COc1cc2c(c(OC)c1OC)-c1ccc(O)c(=O)cc1[C@@H](NC(C)=O)CC2	-10.9% (inactive)	
Cc1ccc(C(=O)C(SC(C)(C)C)n2cncn2)cc1 (stereo not given)	-13% (inactive)	
FC(F)(F)c1nc(SCc2ccc(Cl)cc2Cl)n[nH]1	8.98% (inactive)	
COC(=O)COC(=O)c1ccccc1NC(=O)c1ccccc1	-21% (inactive)	
COc1ccc(N(C(=O)c2ccncc2)S(=O)(=O)c2ccc(F)cc2)cc1	38.9% (inactive)	
Cc1cccc(C)c1N1C(=O)C2ON(c3ccccc3)C(c3ccncc3)C2C1=O (stereo not given)	-3.22% (inactive)	
CNc1cc(CSC)nc(SCc2ccc(Cl)cc2Cl)n1	14.7% (inactive)	
CCOc1ccc(N/N=C(/C#N)C(N)=O)cc1	-29.8% (inactive)	
CCc1ccc(S(=O)(=O)N(C(=O)c2ccncc2)c2ccc(OC(=O)c3ccncc3)cc2)cc1	-20% (inactive)	
O=C(O)c1c(NC(=O)N2CCCC2)sc2c1CCCC2	-4.69% (inactive)	
O=C1Nc2c(Br)cccc2C1=O	-4.37% (inactive)	
Cc1nc2ccc(C(=O)NCc3ccc4c(c3)OCO4)cc2s1	1.05% (inactive)	
CCOC(=O)c1ccc(N2C(=O)CC(N3CCC(O)(c4ccc(Cl)cc4)CC3)C2=O)cc1 (stereo not given)	7.67% (inactive)	
